Laboratory results from US20250381254A1, “Augmented Acid Alpha-Glucosidase For The Treatment Of Pompe Disease” (Amicus Therapeutics, Inc., priority 2015, published 2025).
Where two headings read alike, the source gives them in different places.

Tests used:
[1] = Population PK model of duvoglustat in plasma and tissue; assay type: in vivo, human; details: typical value
Experimental: Concentration-time profiles of miglustat (200 mg) in Pompe disease patients are compared to those obtained following administration of duvoglustat in normal healthy volunteers (dose range: 50, 100, 250, 600, and 1000 mg). Because concentration-time profiles of miglustat in patients with Pompe disease are similar to those observed following dosing of duvoglustat in healthy subjects over 24 h, PK data collected for duvoglustat in peripheral tissues were used as a surrogate to model exposure to miglustat. A two-compartment model with linear elimination is used to characterize the concentration-time profiles of duvoglustat in tissues.

[2] = Specific activity of ATB200 batches; assay type: biochemical
Experimental: Two batches of ATB200 with different sialic acid content were evaluated for pharmacokinetics and efficacy in Gaa KO mice.

[3] = Plasma GAA activity half-life of ATB200 batches after single IV bolus; assay type: in vivo, mouse; details: GAA activity in plasma, Gaa KO mice
Gaa KO mice [4] = assay: Glycogen reduction by ATB200 batches vs Lumizyme; assay type: in vivo, mouse; details: 2 IV bolus injections every other week, FIGS. 37A-37D
Experimental: In a related study, IV bolus tail vein injections of ATB200 (Batches A and B) and Lumizyme® were given to Gaa KO mice every other week for a total of 2 injections. Glycogen levels in tissues were measured 14 days after last administration.

Gaa KO mice [5] = assay: Cellular dysfunction in Gaa KO mice after 2 administrations; assay type: in vivo, mouse; details: 20 mg/kg ERT every other week, miglustat 10 mg/kg
Experimental: These key muscle proteins require proper protein trafficking to the muscle cell membrane where they function. […] Alglucosidase alfa (Myozyme®) and ATB200 with and without 10 mg/kg miglustat were evaluated in Gaa KO mice at equivalent ERT dose (20 mg/kg) via an every other week dosing schedule. […] In FIGS. 32A-32D, * indicates statistically significant compared to Myozyme® alone.

[6] = 20 to 40 mg/kg alglucosidase alfa with 4 doses of 80 mg miglustat; 13 Pompe subjects; mean; cited from earlier work
[7] = Apparent plasma half-life in vivo
CIMPR = CIMPR (Homo sapiens, UniProt P11717); assay: CIMPR affinity chromatography of rhGAA; assay type: binding; details: fraction of total enzyme by GAA activity
Experimental: To evaluate the ability of the rhGAA in Myozyme® and Lumizyme®, the only currently approved treatments for Pompe disease, these rhGAA preparations were injected onto a CIMPR column (which binds rhGAA having M6P groups) and subsequently eluted with a free […] gradient. Fractions were collected in 96-well plate and GAA activity assayed by 4MU—α-glucose substrate. The relative amounts of bound and unbound rhGAA were determined based on GAA activity and reported as the fraction of total enzyme.

CIMPR, sequence (P11717 41-2491, species assumed): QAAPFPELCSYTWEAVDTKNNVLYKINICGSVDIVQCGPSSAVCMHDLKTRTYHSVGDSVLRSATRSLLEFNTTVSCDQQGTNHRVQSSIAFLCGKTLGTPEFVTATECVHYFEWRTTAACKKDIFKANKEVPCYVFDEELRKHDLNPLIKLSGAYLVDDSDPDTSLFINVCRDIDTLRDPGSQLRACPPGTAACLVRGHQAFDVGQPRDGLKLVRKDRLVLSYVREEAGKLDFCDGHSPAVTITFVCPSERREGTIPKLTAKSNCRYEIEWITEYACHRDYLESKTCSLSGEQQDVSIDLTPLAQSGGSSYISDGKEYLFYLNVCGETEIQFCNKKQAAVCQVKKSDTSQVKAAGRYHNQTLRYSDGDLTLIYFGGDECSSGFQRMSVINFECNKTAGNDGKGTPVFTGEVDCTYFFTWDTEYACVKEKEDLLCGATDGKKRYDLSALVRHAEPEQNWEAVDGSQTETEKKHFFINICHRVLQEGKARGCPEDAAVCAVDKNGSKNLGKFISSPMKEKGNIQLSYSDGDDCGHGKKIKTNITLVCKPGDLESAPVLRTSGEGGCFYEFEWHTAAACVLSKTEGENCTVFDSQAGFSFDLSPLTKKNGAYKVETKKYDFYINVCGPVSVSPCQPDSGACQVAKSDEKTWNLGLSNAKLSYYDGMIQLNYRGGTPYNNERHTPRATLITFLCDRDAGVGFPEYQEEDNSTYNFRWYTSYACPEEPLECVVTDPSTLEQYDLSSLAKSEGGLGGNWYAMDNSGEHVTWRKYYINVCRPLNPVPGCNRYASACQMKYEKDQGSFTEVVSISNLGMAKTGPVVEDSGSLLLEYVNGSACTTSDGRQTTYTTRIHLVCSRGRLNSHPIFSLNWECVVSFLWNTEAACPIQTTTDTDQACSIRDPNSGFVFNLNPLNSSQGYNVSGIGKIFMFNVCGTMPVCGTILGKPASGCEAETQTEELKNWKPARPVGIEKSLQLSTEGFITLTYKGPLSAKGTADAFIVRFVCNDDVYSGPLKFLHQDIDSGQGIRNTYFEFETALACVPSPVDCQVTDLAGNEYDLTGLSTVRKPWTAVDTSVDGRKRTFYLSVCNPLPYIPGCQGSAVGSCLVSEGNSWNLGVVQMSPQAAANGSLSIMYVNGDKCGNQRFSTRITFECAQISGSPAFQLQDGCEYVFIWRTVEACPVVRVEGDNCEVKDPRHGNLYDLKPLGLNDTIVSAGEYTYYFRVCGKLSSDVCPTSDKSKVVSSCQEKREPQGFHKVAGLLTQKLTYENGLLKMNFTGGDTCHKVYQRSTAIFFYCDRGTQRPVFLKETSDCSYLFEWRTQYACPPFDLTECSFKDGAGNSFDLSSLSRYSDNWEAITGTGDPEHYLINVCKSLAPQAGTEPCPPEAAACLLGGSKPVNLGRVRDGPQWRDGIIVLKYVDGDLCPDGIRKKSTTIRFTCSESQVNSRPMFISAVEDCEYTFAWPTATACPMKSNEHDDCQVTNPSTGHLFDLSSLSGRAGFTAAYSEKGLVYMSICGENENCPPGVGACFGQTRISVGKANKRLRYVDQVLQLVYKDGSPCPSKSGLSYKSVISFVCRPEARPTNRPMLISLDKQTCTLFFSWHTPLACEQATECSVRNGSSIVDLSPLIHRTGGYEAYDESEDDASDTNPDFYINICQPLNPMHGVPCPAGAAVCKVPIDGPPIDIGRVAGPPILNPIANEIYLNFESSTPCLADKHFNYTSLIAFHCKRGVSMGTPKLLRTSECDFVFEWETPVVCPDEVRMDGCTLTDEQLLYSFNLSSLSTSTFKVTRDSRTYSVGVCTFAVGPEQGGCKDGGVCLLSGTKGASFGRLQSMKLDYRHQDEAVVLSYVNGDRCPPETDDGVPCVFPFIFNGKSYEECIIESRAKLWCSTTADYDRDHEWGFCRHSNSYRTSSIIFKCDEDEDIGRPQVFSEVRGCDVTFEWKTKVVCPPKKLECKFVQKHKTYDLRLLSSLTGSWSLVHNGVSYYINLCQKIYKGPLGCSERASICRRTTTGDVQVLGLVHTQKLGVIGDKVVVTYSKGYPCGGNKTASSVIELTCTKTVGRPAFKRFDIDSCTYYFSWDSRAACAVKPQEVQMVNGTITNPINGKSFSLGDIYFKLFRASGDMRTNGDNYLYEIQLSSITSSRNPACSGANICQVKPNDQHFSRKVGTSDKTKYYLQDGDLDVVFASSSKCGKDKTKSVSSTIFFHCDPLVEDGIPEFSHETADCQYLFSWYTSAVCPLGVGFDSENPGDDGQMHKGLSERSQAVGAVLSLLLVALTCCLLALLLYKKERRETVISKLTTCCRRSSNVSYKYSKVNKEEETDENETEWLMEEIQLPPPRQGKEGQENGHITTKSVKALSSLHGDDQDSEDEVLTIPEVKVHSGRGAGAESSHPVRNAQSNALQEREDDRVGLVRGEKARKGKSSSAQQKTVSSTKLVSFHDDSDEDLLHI

With `OC[C@H]1NC[C@H](O)[C@@H](O)[C@@H]1O` [duvoglustat, (2R,3R,4R,5S)-2-(hydroxymethyl)piperidine-3,4,5-triol] as the compound, how does the clearance ([1]; human, plasma and tissue, read-out: Central compartment clearance (CL2) (converted)) read?
The clearance was 3.42 mL/min.

And the clearance ([1]; human, plasma and tissue, read-out: Systemic clearance (CL) (converted))?
The clearance was 157 mL/min.

And the Vd ([1]; human, plasma and tissue, read-out: Volume of distribution (V))?
The Vd was 44.5 L.

What about the “Apparent intercompartment clearance (CLQ)” value [1] of the same compound?
Its value is 40.6 L/h.

And the “Elimination rate constant (Keo)” value [1]?
Its value is 0.378.

What about the “Intercompartment volume of distribution (VQ)” value [1] of the same compound?
The value was 61.8 L.

What about the “Intercompartment volume of distribution within central compartment (VQ2)” value [1] of the same compound?
Its value is 3390 L.

What about the Lag time [1] of the same compound?
Its Lag time is 0.176 h.

And the “Peripheral compartment clearance (CL3)” value [1]?
Its value is 88.0 L/h.

And the “Peripheral volume of distribution (V2)” value [1]?
Its value is 8.68 L.

And the “Rate constant of absorption (Ka)” value [1]?
Its value is 1.10 h⁻¹.

With “Batch B: batch of ATB200 with sialic acid 5.4 mol/mol protein and M6P content 2.9 mol/mol protein” as the compound, how does the Specific activity [2] read?
Its Specific activity is 120929 (nmol nmol 4 mu/mg protein/hr.

And the “Half-life, Mean ± SEM” value [3]?
Its value is 36 ± 1.8 min.

What about the “glycogen reduction vs Lumizyme®” value (Gaa KO mice [4]) of the same compound?
The value was “superior to Lumizyme® in reducing glycogen”.

And the “glycogen reduction, Batch B vs Batch A” value (Gaa KO mice [4]; similar doses)?
The value was “generally more effective in reducing glycogen than Batch A”.

What does the source list for “[199-arginine,223-histidine]prepro-α-glucosidase (human) [alglucosidase alfa]”?
autophagy (LC3 II) and lysosomal proliferation (LAMP1) (Gaa KO mice [5]; FIGS. 29-30): negligible effects towards reducing autophagy; lysosomal glycogen in skeletal muscles (Gaa KO mice [5]; FIGS. 32A-32D): modestly reduced accumulated lysosomal glycogen in skeletal muscles; increase in acid α-glucosidase activity exposure (AUC), co-administration vs alglucosidase alfa alone [6]: 6.8 fold; apparent plasma half-life t1/2 [7]: ~60 min

Which “rhGAA activity eluted prior to addition of M6P (did not bind to the CIMPR)” value (CIMPR) does the source give for “Myozyme®: conventional rhGAA product (alglucosidase alfa), Genzyme” here?
The value was 73%.

What about the “rhGAA eluted with M6P / containing M6P (CIMPR binding)” value (CIMPR) of the same compound?
The value was 27%.

Which results are given for “Batch A: batch of ATB200 with sialic acid 4.0 mol/mol protein and M6P content 3.3 mol/mol protein”?
Specific activity [2]: 115831 (nmol nmol 4 mu/mg protein/hr; Half-life, Mean ± SEM [3]: 30 ± 1.2 min; glycogen reduction vs Lumizyme® (Gaa KO mice [4]): superior to Lumizyme® in reducing glycogen
